Reference: US8012471B2, “Screening and treatment methods using IGS5 enzymes of the metalloprotease family” (Abbott Healthcare Products B.V., priority 1999, dated 2011)
Entries after “also recorded” stand apart in the source; their conditions may differ. Marks after values point to notes of the source that are not given here. Starred links: 1 amine or outer side, 2 acyl side, 3 side chain; linkers in the order of their positions; H or OH if unused. Non-standard residues stand in square brackets, D forms with d. No end group written: not given here. *: point of attachment. Dpa = quench label, O=C([C@H](CNc1ccc([N+](=O)[O-])cc1[N+](=O)[O-])N[*:1])[*:2]; Mca = COc1ccc2c(CC(=O)*)cc(=O)oc2c1

How the values were obtained:
[1] = molecular target: T1, IGS5 polypeptide (His6-tagged IGS5 ectodomain) (Homo sapiens, UniProt Q495T6, V306M); experiment: Hydrolysis of vasoactive peptides and PACAP(1-27) by IGS5 polypeptide (HPLC); type: biochemical; details: for % Hydrolysis by IGS5 Polypeptide: 0.5 μM substrate, 2 h, 37° C.
T1 construct: made in house; host or cells: Spodoptera frugiperda Sf9 (baculovirus IGBV73)
T1 sequence (Q495T6 with tags, fused parts or gaps V306M): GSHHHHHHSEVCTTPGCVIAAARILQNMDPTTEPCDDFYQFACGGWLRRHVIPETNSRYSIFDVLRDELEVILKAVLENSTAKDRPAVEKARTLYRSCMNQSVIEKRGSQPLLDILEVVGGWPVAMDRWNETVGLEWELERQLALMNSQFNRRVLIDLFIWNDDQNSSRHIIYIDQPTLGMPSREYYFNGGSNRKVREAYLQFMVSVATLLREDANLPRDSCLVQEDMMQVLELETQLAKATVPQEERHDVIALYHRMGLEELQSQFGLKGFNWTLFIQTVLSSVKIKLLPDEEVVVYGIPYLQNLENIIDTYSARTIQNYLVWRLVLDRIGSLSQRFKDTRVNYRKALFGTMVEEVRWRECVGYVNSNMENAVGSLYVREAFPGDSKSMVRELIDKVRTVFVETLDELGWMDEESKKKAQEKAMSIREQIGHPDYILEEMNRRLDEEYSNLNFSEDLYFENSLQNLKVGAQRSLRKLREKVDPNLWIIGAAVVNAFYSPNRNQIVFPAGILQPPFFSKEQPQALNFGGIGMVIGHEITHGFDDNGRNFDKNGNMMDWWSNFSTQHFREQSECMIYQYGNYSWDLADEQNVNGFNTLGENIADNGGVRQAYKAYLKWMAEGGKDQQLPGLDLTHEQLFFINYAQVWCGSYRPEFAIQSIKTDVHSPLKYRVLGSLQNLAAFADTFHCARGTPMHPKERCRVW
Method: (§1) The enzymatic activity of IGS5 polypeptides of the invention was tested with regard to the metabolism of biologically active peptides. In particular it was tested whether these IGS5 polypeptides may act on a variety of vasoactive peptides known in the state of the art e.g. such like atrial natriuretic peptide (ANP), bradykinin, big endothelin (Big ET-1), endothelin (ET-1), substance P and angiotensin-1. In the context of the present invention in particular it was tested whether the IGS5 ectodomain, which is a novel human metalloprotease, hydrolyzes said vasoactive peptides. For comparison the assay was also performed for a known member of the metalloprotease family which was described earlier as soluble secreted endopeptidase (SEP) by Ikeda, Emoto et al. (J. Biol. Chem., Vol. 274 (1999): pp. 32469-32477). Furthermore, it was tested whether the activity of IGS5 to convert a Big-ET-1 analogue (the so-called 17 aa Big-ET) may be inhibited by reference compounds that are used to determine the inhibition properties with regard to enzymes having ECE and/or NEP-characteristics. […] It was then checked whether the activity of IGS5 to convert PACAP(1-27) may be inhibited by a compound known to be a IGS5 inhibitor. The compound used to test the inhibition of IGS5-activity on PACAP(1-27) was the active metabolite of (3S,2′R)-3-{1-[2′-(ethoxycarbonyl)-4′-phenylbutyl]-cyclopentane-1-carbonylamino}-2,3,4,5-tetrahydro-2-oxo-1H-1-benzazepine-1-acetic acid (compound Ia-2 from WO 02/094176).
The enzymatic reaction was subsequently terminated by heating to 95° C. for 5 min. After centrifugation (Heraeus Biofuge B, 3 min) the supernatant was subjected to HPLC
(§2) In order to separate the remaining substrate from the cleavage products reversed phase HPLC technique was used with a CC 125/4 Nucleosil 300/5 C18 RP column and a CC 8/4 Nucleosil 100/5 C18 precolumn (commercially available from Macherey-Nagel, Duren, Germany). Thus, 60 μl of the reaction samples obtained in Example 7B were injected into the HPLC, and the column was eluted at a flow rate of 1 ml/min by applying the following gradient and solutions: […]
(§3) Peptides were detected by absorbance at 214 nm (UV spectroscopy) and/or by fluorescence with an excitation wavelength of 328 nm and an emission wavelength of 393 nm.
% Hydrolysis: For detection of substrate cleavage, the percentage of hydrolysis was calculated by directly comparing the substance peak areas in HPLC traces of the sample without addition of any IGS5 enzyme activity (blank) and of the samples with addition of IGS5 enzyme (sample). % hydrolysis was calculated on basis of the respective peak areas. % hydrolysis=100*(1−(Asample/Ablank))

[2] = molecular target: T2, SEP (soluble secreted endopeptidase) (Mus musculus, UniProt Q9JLI3); details: 100 μl assay volume; 10 μg partially purified SEP; 0.5 μM substrate; 12 h, 37° C.; cited from earlier work
T2 sequence (Q9JLI3 1-765): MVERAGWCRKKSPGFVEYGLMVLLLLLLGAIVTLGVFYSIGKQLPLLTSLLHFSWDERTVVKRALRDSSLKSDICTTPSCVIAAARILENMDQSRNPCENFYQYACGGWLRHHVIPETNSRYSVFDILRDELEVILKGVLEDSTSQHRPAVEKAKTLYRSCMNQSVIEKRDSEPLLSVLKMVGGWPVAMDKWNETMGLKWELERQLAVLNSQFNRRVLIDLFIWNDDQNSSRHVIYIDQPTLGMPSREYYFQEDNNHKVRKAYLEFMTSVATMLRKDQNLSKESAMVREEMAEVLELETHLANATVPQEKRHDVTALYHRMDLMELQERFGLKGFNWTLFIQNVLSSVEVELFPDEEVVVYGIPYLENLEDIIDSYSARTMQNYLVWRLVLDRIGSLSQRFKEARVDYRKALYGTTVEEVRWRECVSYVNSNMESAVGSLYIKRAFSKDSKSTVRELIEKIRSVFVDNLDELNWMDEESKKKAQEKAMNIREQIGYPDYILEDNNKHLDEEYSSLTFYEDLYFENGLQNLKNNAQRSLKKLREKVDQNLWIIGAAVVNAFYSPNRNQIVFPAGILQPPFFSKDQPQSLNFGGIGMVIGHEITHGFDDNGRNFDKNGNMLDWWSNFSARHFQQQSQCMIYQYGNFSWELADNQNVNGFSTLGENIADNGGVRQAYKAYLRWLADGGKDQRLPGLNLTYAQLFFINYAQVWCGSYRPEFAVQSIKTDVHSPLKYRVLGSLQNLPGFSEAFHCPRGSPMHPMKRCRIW

[3] = molecular target: T1, IGS5 polypeptide (His6-tagged IGS5 ectodomain); experiment: Enzyme inhibition assay: IGS5 conversion of the Big-ET-1 analogue 17 aa Big-ET (HPLC); type: biochemical; details: for Inhibition of IGS5 (result in words): conversion of Big-ET-1 analogue 17 aa Big-ET; for IC50: substrate 17 aa Big-ET, 60 min, 37° C., read-out: Inhibition of IGS5 polypeptide's activity to convert the Big-ET-1 analogue 17 aa Big-ET, IC50
Method: as §1
All test compounds were dissolved in DMSO at 10 mM and were further diluted with assay buffer.
A quantity of 70 μl, of the assay buffer, of 10 μl enzyme working solution (10 μg/ml) and of 10 μl test compound solution were mixed in an Eppendorf vial and preincubated at 37° C. for 15 minutes. Then, 10 μl substrate stock solution was added and the reaction mixture was incubated at 37° C. for 60 minutes to allow for enzymatic hydrolysis. Subsequently the enzymatic reaction was terminated by heating at 95° C. for 5 minutes. After centrifugation (Heraeus Biofuge B, 3 min) the supernatant was subjected to HPLC analysis.
as §2, §3
% Inhibition: The increasing fluorescence signal of the HPLC-peak of the peptide with the unquenched Mca-fluorophor after hydrolysis was taken as the basis for any calculation. This signal was compared for the samples with and without inhibitor and % inhibition was calculated on basis of the respective peak areas. If non labeled peptide substrates were used, basis of the calculation of % inhibition was the peak area of the remaining undegraded peptide substrate for an inhibitory test compound containing sample (inhib) in comparison to samples containing only peptide without addition of any IGS5 enzyme activity (blank) and to samples containing peptide and enzyme without inhibitor (control) according to the following equation % inhib=100*((Ainhib−Acontrol)/(Ablank−Acontrol)) All samples were run in duplicate and mean values were used. A standard inhibitor (10 nM and 100 nM Phosphoramidon) and/or a solvent control (0.1%) was added to each assay run.

[4] = 100 μl assay volume, 100 ng IGS5 polypeptide

Row | Hydrolysis by IGS5 in vitro (result in words) [1] | Compound | % Hydrolysis by IGS5 Polypeptide [1, 4] | % Hydrolysis by SEP (Ikeda, Emoto et al., 1999) [2] [%] | Inhibition of IGS5 (result in words) [3] | IC50 [3] [nM] | other results
1 | hydrolyze | CC[C@H](C)[C@@H]1NC(=O)[C@H](CCCNC(=N)N)NC(=O)[C@H](CC(=O)O)NC(=O)[C@H](CCSC)NC(=O)[C@H](CCCNC(=N)N)NC(=O)CNC(=O)CNC(=O)[C@H](Cc2ccccc2)NC(=O)[C@@H](NC(=O)[C@H](CO)NC(=O)[C@H](CO)NC(=O)[C@H](CCCNC(=N)N)NC(=O)[C@H](CCCNC(=N)N)NC(=O)[C@H](CC(C)C)NC(=O)[C@@H](N)CO)CSSC[C@@H](C(=O)N[C@@H](CC(N)=O)C(=O)N[C@@H](CO)C(=O)N[C@@H](Cc2ccccc2)C(=O)N[C@@H](CCCNC(=N)N)C(=O)N[C@@H](Cc2ccc(O)cc2)C(=O)O)NC(=O)CNC(=O)[C@H](CC(C)C)NC(=O)CNC(=O)[C@H](CO)NC(=O)[C@H](CCC(N)=O)NC(=O)[C@H](C)NC(=O)CNC1=O [ANP, atrial natriuretic peptide] | 5% | >95 | – | – | % Hydrolysis by IGS5 Polypeptide ([1]; 500 ng IGS5 polypeptide): 80%
2 | – | O=C(O)C(Cc1ccc2c(c1)oc1ccccc12)NCP(=O)(O)O (centres unmarked) [CGS-35066] | – | – | not inhibited; also recorded: no inhibition | 1300 | –
3 | – | CC(C)C[C@H](NP(=O)(O)O[C@@H]1O[C@@H](C)[C@H](O)[C@@H](O)[C@H]1O)C(=O)N[C@@H](Cc1c[nH]c2ccccc12)C(=O)O [Phosphoramidon] | – | – | inhibited; also recorded: inhibition | 18 | –
4 | – | O=C(O)CNC(=O)C(CS)Cc1ccccc1 (centres unmarked) [Thiorphan] | – | – | not efficiently inhibited; also recorded: no inhibition | > 1000 | –
5 | – | Mca-Asp-Ile-Ala-Trp-Phe-Dpa-Thr-Pro-Glu-His-Val-Val-Pro-Tyr-Gly-Leu-Gly-COOH (Mca-DIAWF[Dpa]TPEHVVPYGLG-OH; SMILES CC[C@H](C)[C@H](NC(=O)[C@H](CC(=O)O)NC(=O)Cc1cc(=O)oc2cc(OC)ccc12)C(=O)N[C@@H](C)C(=O)N[C@@H](Cc1c[nH]c2ccccc12)C(=O)N[C@@H](Cc1ccccc1)C(=O)N[C@@H](CNc1ccc([N+](=O)[O-])cc1[N+](=O)[O-])C(=O)N[C@H](C(=O)N1CCC[C@H]1C(=O)N[C@@H](CCC(=O)O)C(=O)N[C@@H](Cc1c[nH]cn1)C(=O)N[C@H](C(=O)N[C@H](C(=O)N1CCC[C@H]1C(=O)N[C@@H](Cc1ccc(O)cc1)C(=O)NCC(=O)N[C@@H](CC(C)C)C(=O)NCC(=O)O)C(C)C)C(C)C)[C@@H](C)O) [17 aa Big ET 1] | 41% | – | – | – | –
6 | – | RPPGFSPFR [Bradykinin, bradykinin] | 100% | – | – | – | % Hydrolysis by IGS5 Polypeptide ([1]; 10 ng IGS5 polypeptide): 62%
7 | – | angiotensin-1 (DRVYIHPFHL) [Angiotensin 1] | 15*** % | >95 | – | – | Formation of angiotensin II on degradation by IGS5 [1]: ***degradation of angiotensin I does not result in formation of angiotensin II
8 | hydrolyze | big endothelin (CSCSSLMDKECVYFCHLDIIWVNTPEHVVPYGLGSPRS) [Big ET-1] | – | 42 | – | – | –
9 | – | substance P | 100% | >95 | – | – | –

Row | Compound | Hydrolysis by IGS5 in vitro (result in words) [1] | % Hydrolysis by IGS5 Polypeptide [1, 4] | % Hydrolysis by SEP (Ikeda, Emoto et al., 1999) [2] [%] | Inhibition of IGS5 (result in words) [3] | IC50 [3] [nM] | other results
10 | CC[C@H](C)[C@H](NC(=O)[C@H](CC(=O)O)NC(=O)[C@H](CC(C)C)NC(=O)[C@H](Cc1c[nH]cn1)NC(=O)[C@@H]1CSSC[C@H](N)C(=O)N[C@@H](CO)C(=O)N[C@H]2CSSC[C@H](NC(=O)[C@H](CCC(=O)O)NC(=O)[C@H](CCCCN)NC(=O)[C@H](CC(=O)O)NC(=O)[C@H](CCSC)NC(=O)[C@H](CC(C)C)NC(=O)[C@H](CO)NC(=O)[C@H](CO)NC2=O)C(=O)N[C@@H](C(C)C)C(=O)N[C@@H](Cc2ccc(O)cc2)C(=O)N[C@@H](Cc2ccccc2)C(=O)N1)C(=O)N[C@H](C(=O)N[C@@H](Cc1c[nH]c2ccccc12)C(=O)O)[C@@H](C)CC [ET-1, endothelin] | hydrolyze | <30% | 92 | – | – | –
